Values after ≈ are worked out from the molar mass of the structure shown. Where two headings read alike, the source gives them in different places.
What was measured:
[1] = Payload encapsulation (loading) efficiency in YPs by HPLC; assay type: physicochemical
Protocol: Samples of YP-GET (10 μL, 10 mg YP/mL) were stained with Nile red (2 μL, 0.1 mg/mL) and fluorescein labeled concanavalin-A (FITC ConA, 2 μL, 0.1 mg/mL) to qualitatively assess loading by the fluorescence microscopy of the encapsulated fluorescent terpene-Nile red complex in the FITC ConA labeled yeast particle. Nile red was imaged using a rhodamine (red) filter (maxi-mum excitation/emission wavelengths at 550/570 nm) and FITC-ConA was imaged with a green filter at 490/520 nm. Microscopy images were collected with an Olympus BX60 upright compound fluorescent microscope. YP GET samples (100 mg) were centrifuged to collect excess liquid (free terpene and water) and the pellet fraction was resuspended in 10 mL of 90% methanol-10% water to extract encapsulated terpenes. Terpenes were quantified by HPLC operated with 32 KARAT™ software version 7.0 (Beckman Coulter, Inc, Brea, CA, USA), using a Waters […]® C18 column (3.5 μm, 4.6×150 mm) with acetonitrile:water 50:50 as mobile phase, flow rate at 1 mL/min, injection volume of 10 μL, and terpene detection at 254 nm. […] The quantification of terpenes was done by measuring the peak area and interpolating the concentration using a calibration curve obtained with terpene standards.
Terpenes were mixed with water and YPs from two different manufacturers and incubated at room temperature for 48 hours and encapsulation efficiency of terpenes in YPs was measured as described above after incubation at room temperature for 2 days.
(§1) Dry YPs from two different manufacturers were mixed with water (0.5mL water/g YP) for 30 minutes to obtain a uniform hydrated YP suspension. Limonene was added to the YP sample and incubated at 40° C. for one week to allow for complete limonene loading. Loading efficiency was quantitatively measured by the basic HPLC procedure described above using assay details listed in Table 10 and qualitatively assessed by fluorescence microscopy as described before. Particle diameter was measured as described before.
as §1, with “(0.5 to 2.5 mL” for “(0.5mL”, “Limonene was added to the YP sample and incubated at 40° C. for one week to allow for complete limonene loading.” left out, “12” for “10”, “above.” for “before.”
as §1, with “(2.5 to 5 mL” for “(0.5mL”, “Triallate” for “Limonene”, “3 to 7 days” for “one week”, “complete” for “complete limonene”, “14” for “10”
Dry GLPs/YPs were mixed with water (0.5 to 4.5 mL water g GLP/YP) for 30 minutes to obtain a uniform hydrated YP suspension. THC was added to the GLP/YP sample and incubated at 23° C. for 48 hours to allow for complete THC loading. Loading efficiency was quantitatively measured by the basic HPLC procedure described above using assay details listed in Table 16 and qualitatively assessed by fluorescence microscopy as described above. Particle diameter was measured as described above.
Two different kinds of dry YPs were mixed with water (0.5 to 4.5 mL water/g YP) for 30 minutes to obtain a uniform hydrated YP suspension. λCy was added to the YP sample and incubated at 55° C. for one week to allow for complete λCy loading. Loading efficiency was quantitatively measured by the basic HPLC procedure described above using assay details listed in Table 18 and qualitatively assessed by fluorescence microscopy as described before. Particle diameter was measured as described before.
PTP is highly soluble in acetone and dichloromethane. […]

[2] = Solubility in organic loading and leave-in solvents
Candida albicans SC5134 = assay: Antimicrobial microplate assay (MIC 75%); assay type: cell-based
Protocol: The antimicrobial activity of YP-GET was evaluated using a modified published microplate assay procedure (Sultanbawa, Y.; Cusack, A.; Currie, M.; Davis, C. An Innovative Microplate Assay to Facilitate the Detection of Antimicrobial 538Activity in Plant Extracts. J. Rapid Meth. Aut. Mic. 2009, 17 (4), 519-534. haps://doi.org/10.111/j.1745-4581.2009.00187.x). Samples of YP-GET were suspended in 100 μL of growth medium (LB 395was used in antibacterial assays and YPD in antifungal assays) and added to the first row 396 (Row A) of a 96-well plate (all wells in the 96-well plate contain additional 100 μL medium). Serial dilutions (1:1) were performed by transferring 100 μL from Row A to Row B, etc., and finally removing 100 μL from Row H. Diluted Escherichia coli Top10 (Invitrogen, Carlsbad CA), Staphylococcus aureus ATCC 19636 or Candida albicans SC5134 cells (100 μL, […]) were added to all wells of the plate. Initial (t=0) and final (t=16 h, 37° C.) absorbance readings were taken at 650 nm.

S. cerevisiae = conditions: cited from earlier work
C. albicans = conditions: cited from earlier work
[3] = cited from earlier work; for water/octanol partition coefficient (log P): chemical and physical properties tables
[4] = cited from earlier work
H. pylori = conditions: concentration of 2 mg/L; cited from earlier work
[5] = Payload release from YPs upon dilution in water (HPLC of supernatant); assay type: physicochemical
Protocol: Sustained payload release from YPs occurs by payload diffusion out of the particles and is a function of the payload's solubility in water. […] Samples were incubated at room temperature. Amount of triallate released from the particles into the supernatant was quantified by HPLC as described before.
λCy-YP samples loaded at a w/w λCy:YP ratio of 1:1 were diluted in water ±surfactant (1% w/v IGEPAL) at target λCy concentrations of 0.001, 0.01, 0.1 and 1 mg/mL. Samples were incubated at room temperature for 3 hours. Supernatant was collected to measure amount of λCy released from the particles. The amount of λCy was quantified by HPLC as described above.
PTP-YP samples prepared without leave in solvent or with leave-in solvent GET424 or DMDA. Samples carrying PTP:YP weight ratio 1:1, PTP:GET:YP ratio of 1:1:1 or PTP:DMDA:YP ratio of 1:1:1 were diluted in water at a target PTP concentration of 0.001, 0.01, 0.1 and 1 mg/mL. Samples were incubated at room temperature. Supernatant was collected to measure amount of payload released from the particles.

physchem = conditions: organic solvent or mixture
[6] = Table 21, cited from earlier work
[7] = chemical and physical properties tables

Compound: C=C(C)[C@@H]1CCC(C)=C[C@H]1c1c(O)cc(CCCCC)cc1O [CBD, cannabidiol]
- encapsulation efficiency ([1]; 3:1 (CBD+OA):GLP ratio, OA leave-in solvent): high encapsulation efficiency
- encapsulation efficiency ([1]; CBD:YP weight ratios up to 5:1, multiple loading cycles, GLPs): high encapsulation efficiency
- solubility ([2]; DMSO, organic solvent or mixture): 200000 µg/mL (≈ 636 mM)
- solubility ([2]; GET424, organic solvent or mixture): 10000 µg/mL (≈ 31.8 mM)
- CBD Solubility Ethanol ([2]; ethanol): Miscible at 1:1 weight ratio*
- CBD Solubility Methanol ([2]; methanol): Miscible at 1:1 weight ratio*
- CBD Solubility Octanoic Acid (OA) ([2]; octanoic acid): Miscible at 0.5:1 CBD:OA ratio

Compound: OC(Cn1cncn1)(Cn1cncn1)c1ccc(F)cc1F [Fluconazole]
- fold lower concentration than YP GET to reach MIC 75% (Candida albicans SC5134): 10 fold

Compound: CC(C)=CCC/C(C)=C/CO [Geraniol]
- growth of S. cerevisiae strains (S. cerevisiae): inhibit the growth
- growth of C. albicans strains (C. albicans): inhibit the growth
- Log P ([3]; water/octanol, Table 2): 3.56
- Maximum solubility in water ([4]; Table 1): 686 µg/mL
- Solubility in Water ([4]; Table 2): 686 µg/mL (≈ 4.45 mM)
- Maximum solubility in water ([4]; terpenes in the GET composition): 686 µg/mL
- in vitro growth of H. pylori (H. pylori): inhibited

Compound: CC1(C)C(/C=C(\Cl)C(F)(F)F)[C@H]1C(=O)O[C@H](C#N)c1cccc(Oc2ccccc2)c1 (stereo partly drawn) [Lambda cyhalotrin]
- payload encapsulation ([1]; λCy:YP ratios up to 5:1, no solvent): 77-90%
- Log P ([3]; Table 1): 7.0
- water/octanol partition coefficient (log P) [3]: 7.0
- λCy release from YPs ([5]; dilution to 0.001 mg λCy/mL, λCy:YP 1:1, 3 hours room temperature): over 80%
- Maximum solubility in water ([4]; Table 1): 0.005 µg/mL
- Solubility in Water [4, 7]: 2.8 µg/mL (≈ 0.00622 mM)

Compound: C=C(C)[C@H]1CC=C(C)CC1 [Limonene]
- loading efficiency ([1]; limonene:YP ratio of 3:1, both types of YPs): high efficiency

Compound: CC(C)CC(C)c1sccc1NC(=O)c1cn(C)nc1C(F)(F)F (stereo not drawn) [PTP, Penthiopyrad]
- solubility (physchem): 200000 µg/mL (≈ 556 mM)
- PTP release from YPs ([5]; DMDA leave-in solvent, PTP:DMDA:YP 1:1:1): improved release at 0.1 and 0.01 mg PTP/mL
- PTP release from YPs ([5]; GET424 leave-in solvent, PTP:GET:YP 1:1:1): improved release at 0.01 mg PTP/mL
- PTP release from YPs ([5]; without a leave-in solvent, PTP:YP 1:1): released from YPs only at a concentration above maximum solubility in water

Compound: CCCCCc1cc(O)c2c(c1)OC(C)(C)[C@@H]1CCC(C)=C[C@@H]21 [Tetrahydrocannabinol (THC), Tetrahydrocannabinol, reference compound]
- loading efficiency ([1]; THC:YP ratio of up to 5:1): high efficiency
- Log P ([3]; Table 1): 5.9
- water/octanol partition coefficient (log P) [3]: 5.9
- Maximum solubility in water ([4]; Table 1): 2.8 µg/mL
- Solubility in Water [4, 7]: 2.8 µg/mL (≈ 0.0089 mM)

Compound: CC(C)N(C(=O)SCC(Cl)=C(Cl)Cl)C(C)C [Triallate]
- triallate located inside YPs ([1]; triallate:YP w/w ratios up to 4:1, no solvent): 94 -100%
- release of triallate from the YP ([5]; dilution to 0.001 mg/mL, triallate:YP 3:1 and 4:1): ~100%

Compound: OC(Cc1ccccc1Cl)(Cn1nc[nH]c1=S)C1(Cl)CC1 (stereo not drawn) [prothioconazole]
- encapsulation efficiency ([1]; PRO:YP ratios up to 3:1, three loading cycles, acetone): more than 83%
- water/octanol partition coefficient (log P) [3]: 4.05
- Solubility Water ([4]; Table 21): 22.5 µg/mL (≈ 0.0654 mM)
- Solubility DMSO ([6]; DMSO): 126000 µg/mL (≈ 366 mM)
- Solubility Acetone ([6]; acetone): 444000 µg/mL (≈ 1290 mM)
- Solubility Ethyl acetate ([6]; ethyl acetate): 220000 µg/mL (≈ 639 mM)

Compound: Clomazone
- clomazone located inside YPs ([1]; clomazone:YP w/w ratios up to 5:1, no solvent): 96-100%
- Log P ([3]; Table 1): 2.5
- water/octanol partition coefficient (log P) [3]: 2.5

From US20230413823A1, “HYPERLOADED YEAST CELL WALL PARTICLE AND USES THEREOF” (priority 2022, published 2023)
